In EPA's ToxValDB 9.5:
“And” between values parts separate entries of the source, which are not always exact repeats. Identical values can stand only once.

Assays:
[1] = test system: Rattus norvegicus; settings: for NOEL / LOEL: Hershberger; for LEL: uterotrophic, duration: 3 days, Active
[2] = test system: Rattus norvegicus; settings: acute; oral; gavage; Harlan Sprague Dawley
[3] = test system: Mus musculus; settings: chronic; duration: 50 weeks; oral; drinking water; F; Swiss; body weight
[4] = test system: Rattus norvegicus; settings: for NEL / LEL: Wistar; for NOAEL / LOAEL: Crl:WI (Han)
[5] = chronic, duration: 123 days, oral, gavage, F, Heart: Heart Weight, Relative
[6] = chronic, duration: 123 days, oral, gavage, F, Kidney: Kidney, Cortical Tubular Dilation, Multifocal + Whole Body: Body Weight Change
[7] = reproduction developmental, duration: 90 days, oral, gavage, M, generation: P0, P0: General Toxicity: Whole Body: Body Weight Change + P0: General Toxicity: Whole Body: Body Weight, Absolute + P0: General Toxicity: Whole…
[8] = reproduction developmental, duration: 123 days, oral, gavage, F, generation: P0, P0: General Toxicity: Whole Body: Body Weight Change + P0: General Toxicity: Whole Body: Body Weight, Absolute + P0: General Toxicity: Whole…
[9] = subchronic, duration: 90 days, oral, gavage, M, Kidney: Blood Urea Nitrogen (BUN), Blood + Kidney: Kidney, Cortical Tubular Dilation, Multifocal + Whole Body: Body Weight Change
[10] = duration: 12 days, injection, subcutaneous, Wistar, active + Androgenic + androgenic

`Nc1ncn[nH]1` [Amitrole] was tested, and the NOEL ([1]; duration: 10 days, oral, gavage, Wistar, inactive + Negative + Negative + anti-androgenic + negative on gonad/AST / significant thyroid effects beginning at 25 / increased SV wt …) was 125 mg/kg-day.
`CC[C@H](C)[C@H]1O[C@]2(C=C[C@@H]1C)C[C@@H]1C[C@@H](C/C=C(\C)[C@@H](O[C@H]3C[C@H](OC)[C@@H](O[C@H]4C[C@H](OC)[C@@H](O)[C@H](C)O4)[C@H](C)O3)[C@@H](C)/C=C/C=C3\CO[C@@H]4[C@H](O)C(C)=C[C@@H](C(=O)O1)[C@]34O)O2.CO[C@H]1C[C@H](O[C@H]2[C@H](C)O[C@@H](O[C@@H]3/C(C)=C/C[C@@H]4C[C@@H](C[C@]5(C=C[C@H](C)[C@@H](C(C)C)O5)O4)OC(=O)[C@@H]4C=C(C)[C@@H](O)[C@H]5OC/C(=C\C=C\[C@@H]3C)[C@]54O)C[C@@H]2OC)O[C@@H](C)[C@@H]1O` [Abamectin] showed an NOEL ([1]; duration: 10 days, oral, gavage, Sprague-Dawley, inactive + Negative + Negative + anti-androgenic + negative) of 1.5 mg/kg-day.
In the case of `CC(C)(C)NC(=O)[C@H]1CC[C@H]2[C@@H]3CC[C@H]4NC(=O)C=C[C@]4(C)[C@H]3CC[C@]12C` [Finasteride], the LOEL ([1]; duration: 5 days, oral, gavage, Sprague-Dawley, active + Antiandrogenic + anti-androgenic + decreased age at PPS at 20mg/kg, increased at 80 mg/kg (with 7.8% increased liver wt at high …) is reported as 20 mg/kg-day and 25 mg/kg-day and the LOEL ([1]; duration: 7 days, oral, gavage, Sprague-Dawley, active + Antiandrogenic + anti-androgenic + decreased age at PPS at 20mg/kg, increased at 80 mg/kg (with 7.8% increased liver wt at high …) is reported as 20 mg/kg-day and 25 mg/kg-day.
Molecule `CCOC(=O)c1ccc(O)cc1` [Ethylparaben] has an LEL ([1]; injection, subcutaneous) of 180 mg/kg-day.
For `CCCCCCC(=O)O[C@H]1CC[C@H]2[C@@H]3CCC4=CC(=O)CC[C@]4(C)[C@H]3CC[C@]12C` [Testosterone enanthate], the LOEL ([1]; duration: 10 days, oral, gavage, Sprague-Dawley, active + Androgenic + Negative + androgenic) was 50 mg/kg-day.
Work on `COC(=O)Nc1nc2ccccc2[nH]1` [Carbendazim] yielded an LD50 [2] of over 5050 mg/kg and an NOEL ([1]; duration: 10 days, oral, gavage, Wistar, inactive + Negative + Negative + Neither + effects on fertility, reduced testis/epididymal wt and abnormal histo in P0, fertility) of 100 mg/kg-day.
In the case of `O=[N+]([O-])c1ccc(O)c([N+](=O)[O-])c1` [2,4-Dinitrophenol], the LOAEL [3] is reported as 0.07 mg/kg-day.
Molecule `Oc1ccccc1-c1ccccc1` [2-Phenylphenol] has an NOEL ([1]; duration: 10 days, oral, gavage, Sprague-Dawley, inactive + Negative + Negative + anti-androgenic + decrease in ASTs, NS (1.6 d) delay PPS / accompanied by "minor" increase in liver wt and…) of 250 mg/kg-day.
`C[C@H]1CCC[C@@H](O)CCCCCc2cc(O)cc(O)c2C(=O)O1` [Taleranol] was tested, and the LEL ([1]; oral) was 0.06 mg/day.
`O=c1oc2cc(O)ccc2c2oc3cc(O)ccc3c12` [Coumestrol] gave an LEL ([1]; injection, subcutaneous) of 1 mg/day.
`CCCCC(CC)CN1C(=O)C2C3C=CC(C3)C2C1=O` (stereo not given) [Octylbicycloheptenedicarboximide] was tested, and the NOEL ([1]; duration: 10 days, oral, gavage, Sprague-Dawley, inactive + Negative + Negative + neither + negative) was 700 mg/kg-day.
`CCCSP(=O)(OCC)SCCC` [Ethoprop] was tested, and the NOEL ([1]; duration: 10 days, oral, gavage, Sprague-Dawley, active + Negative + Antiandrogenic + anti-androgenic + decrease in serum testosterone, decrease in epididymal wt at 6 mg/kg / thyroid …) was 8 mg/kg-day.
Work on `C[C@H]1CCC[C@@H](O)CCC/C=C/c2cc(O)cc(O)c2C(=O)O1` [beta-Zearalenol] yielded an LEL ([1]; oral) of 0.8 mg/day.
With `O=S(=O)(O)CCC(F)(F)C(F)(F)C(F)(F)C(F)(F)C(F)(F)C(F)(F)F` [6:2 Fluorotelomer sulfonic acid] the NEL ([4]; chronic, duration: 123 days, oral, gavage, F, Blood: Albumin/Globulin (A/G) Ratio + Blood: Basophils + Blood: Calcium (CA), Blood + Blood: Chloride (CL), Blood + Blood: Cholesterol (CHOL…) was 45 mg/kg-day, the LEL [4, 5] was 15 mg/kg-day and the NEL [4, 5] was 5 mg/kg-day. The LEL [4, 6] was 45 mg/kg-day, the NEL [4, 6] was 15 mg/kg-day and the NOAEL ([4]; developmental, duration: 34 days, parental, M/F, generation: F1, F1: Developmental: Nipples: Nipple Retention + F1: Developmental: Thyroid: Thyroid Gland Weight, Absolute + F1: Developmental: Thyroid: …) was 45 mg/kg-day. The NEL ([4]; developmental, duration: 34 days, parental, M/F, generation: F1, F1: Nipples: Nipple Retention + F1: Thyroid: Thyroid Gland Weight, Absolute + F1: Thyroid: Thyroid Gland Weight, Relative + F1: Thyroid: …) was 45 mg/kg-day, the LOAEL [4, 7] was 45 mg/kg-day and the NOAEL [4, 7] was 15 mg/kg-day. It also gave an NOAEL ([4]; reproduction developmental, duration: 90 days, oral, gavage, M, generation: P0, P0: Reproductive: Whole Body: Days of Cohabitation + P0: Reproductive: Whole Body: Fertility Index + P0: Reproductive: Whole Body: Percent …) of 45 mg/kg-day, an NEL ([4]; reproduction developmental, duration: 90 days, oral, gavage, M, Whole Body: Days of Cohabitation + Whole Body: Fertility Index + Whole Body: Percent Mating) of 45 mg/kg-day and an NOAEL ([4]; reproduction developmental, duration: 123 days, oral, gavage, F, generation: P0, P0: Developmental: Uterus: Abortions + P0: Developmental: Uterus: Litter Loss + P0: Reproductive: Vagina: Uterus (With Cervix) Weight, …) of 45 mg/kg-day. The NOAEL ([4]; reproduction developmental, duration: 123 days, oral, gavage, F, generation: P0, P0: Developmental: Uterus: Post-Implantation Loss + P0: Developmental: Uterus: Pre-Implantation Loss + P0: Reproductive: Ovary: Ovary …) was 45 mg/kg-day, the LOAEL [4, 8] was 45 mg/kg-day and the NOAEL [4, 8] was 15 mg/kg-day. For the same molecule, the NEL ([4]; reproduction developmental, duration: 123 days, oral, gavage, F, Ovary: Ovary Histopathology + Ovary: Ovary Weight, Absolute + Uterus: Estrous Cycle, Length + Uterus: Post-Implantation Loss + Uterus: Pre-…) was 45 mg/kg-day, the NEL ([4]; reproduction developmental, duration: 123 days, oral, gavage, F, generation: P0, P0: Uterus: Abortions + P0: Uterus: Resorptions, Mean/Litter + P0: Vagina: Uterus (With Cervix) Weight, Absolute + P0: Vagina: Vagina …) was 45 mg/kg-day and the NEL ([4]; subchronic, duration: 90 days, oral, gavage, M, Blood: Albumin/Globulin (A/G) Ratio + Blood: Basophils + Blood: Calcium (CA), Blood + Blood: Chloride (CL), Blood + Blood: Cholesterol (CHOL…) was 45 mg/kg-day. The LEL [4, 9] was 45 mg/kg-day, the NEL [4, 9] was 15 mg/kg-day and the LEL ([4]; subchronic, duration: 90 days, oral, gavage, M, Kidney: Kidney Weight, Absolute + Kidney: Kidney Weight, Relative + Liver: Albumin (A), Blood + Whole Body: Total Protein (TP), Blood) was 5 mg/kg-day.
For `Cl.O=C(c1ccc(OCCN2CCCCC2)cc1)c1c(-c2ccc(O)cc2)sc2cc(O)ccc12` [Raloxifene hydrochloride], the LEL ([1]; injection, subcutaneous) was 0.5 mg/kg-day.
Work on `C[C@]12C=CC(=O)C[C@@H]1CC[C@@H]1[C@@H]2CC[C@@]2(C)[C@H]1CC[C@]2(C)O` [Methyl-1-testosterone] yielded an LOEL ([1]; duration: 10 days, injection, subcutaneous, Wistar, active + Androgenic + androgenic) of 1 mg/kg-day, an LOEL [1, 10] of 0.3 mg/kg-day and an NOEL [1, 10] of 0.03 mg/kg-day.
